Results as given in patent publication US20260265227A1, “AMIDE PRODRUGS AND USES THEREOF” (Autobahn Therapeutics, Inc., priority 2022, published 2026).

Target: T1, recombinant human FAAH (rhFAAH) (Homo sapiens, UniProt O00519)
T1 construct: purchased Cayman Chemical (Ann Arbor, MI, USA)
T1 sequence (O00519 1-579): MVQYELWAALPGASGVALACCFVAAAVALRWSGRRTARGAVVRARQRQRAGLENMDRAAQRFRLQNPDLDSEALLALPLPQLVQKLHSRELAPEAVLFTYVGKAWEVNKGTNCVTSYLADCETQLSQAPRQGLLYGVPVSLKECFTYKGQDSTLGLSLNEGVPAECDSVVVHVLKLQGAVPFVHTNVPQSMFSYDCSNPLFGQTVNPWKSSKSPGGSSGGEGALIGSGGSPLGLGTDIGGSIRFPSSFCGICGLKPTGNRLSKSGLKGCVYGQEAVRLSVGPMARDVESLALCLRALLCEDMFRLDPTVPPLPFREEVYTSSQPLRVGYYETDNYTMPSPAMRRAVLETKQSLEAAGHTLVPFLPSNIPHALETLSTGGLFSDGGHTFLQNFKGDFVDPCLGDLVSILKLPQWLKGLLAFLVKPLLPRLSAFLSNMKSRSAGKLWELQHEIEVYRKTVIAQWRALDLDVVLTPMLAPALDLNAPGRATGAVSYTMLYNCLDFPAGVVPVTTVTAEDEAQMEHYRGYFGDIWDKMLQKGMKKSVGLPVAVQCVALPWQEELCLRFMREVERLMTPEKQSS
Assay: FAAH Substrate Evaluation (formation of acid metabolite from amide prodrug)
Assay type: biochemical
Details: 0.5 ng/μL rhFAAH, 1 μM test compound, Tris-EDTA buffer pH 8.0, 0.1% BSA, room temperature, 0-60 minutes, LC-MS/MS
Protocol: Purified recombinant human FAAH (rhFAAH) was purchased from Cayman Chemical (Ann Arbor, MI, USA). The total volume for each incubation was 400 μL containing a final 0.5 ng/μL rhFAAH, 1 μM test compound, 1.25% ethanol or 1 μM PF-3845 (FAAH inhibitor), and 0.1% bovine serum albumin in Tris-EDTA buffer at pH 8.0). The positive control was LL-341001. The incubation was conducted at the room temperature. At 0, 5, 15, 30 and 60 minutes, an aliquot of 30 μL reaction mixtures was removed and mixed with 300 μL acetonitrile containing 5 ng/mL terfenadine and 10 ng/ml tolbutamide as internal standards to quench the reaction. The resulting mixture was centrifuged at 4000 rpm, 4° C. for 15 minutes, and 100 μL supernatant was ready for LC-MS/MS analysis to measure the formation of acid metabolite.
Acquity Ultra Performance LC system from Waters was used for sample analysis. The chromatography was performed on a reverse phase Kinetex 2.6 μm C18 column, 2.1×30 mm, 100 Å. The mobile phase A comprised of 0.1% formic acid in water and mobile phase B comprised of 0.1% formic acid in acetonitrile with a 2-min run time at the flow rate of 0.8 mL/min for the acid metabolite from positive control or a 1.5 min run time at the flow rate of 0.9 mL/min for the acid metabolite of test compounds. The mass spectrometer (API-5500 and API Q Trap 4000 Applied Biosystems/MDS SCIEX Instruments, Framingham, MA, USA) was operated under ESI positive or negative ion MRM mode.
The formation of acid metabolite was monitored and quantified using one calibration point of 1 μM. The observed rate constant (ke) for the acid metabolite formation was calculated by plotting the metabolite concentration versus time of incubation with the slope being ke and is shown in Table 1.

| Compound | ke (observed rate constant for the acid metabolite formation) |
| --- | --- |
| C[C@H]1Cc2cc(OCCCC(F)(F)F)ccc2C=C1CN1CC(C(=O)NCCCF)C1 [Compound 22, (S)-N-(3-fluoropropyl)-1-((3-methyl-6-(4,4,4-trifluorobutoxy)-3,4-dihydro-naphthalen-2-yl)methyl)azetidine-3-carboxamide] | B (ke is less than 1.0 and more than 0) |
| C[C@H]1Cc2cc(OCCCC(F)(F)F)ccc2C=C1CN1CC(C(=O)Nc2ccncc2)C1 [Compound 24, (S)-1-((3-methyl-6-(4,4,4-trifluorobutoxy)-3,4-dihydronaphthalen-2-yl)methyl)-N-(pyridin-4-yl) azetidine-3-carboxamide] | A (ke is more than or equal to 1.0) |
| C[C@H]1Cc2cc(OCCCC(F)(F)F)ccc2C=C1CN1CC(C(=O)NCCC(F)(F)F)C1 [Compound 25, (S)-1-((3-methyl-6-(4,4,4-trifluorobutoxy)-3,4-dihydronaphthalen-2-yl)methyl)-N-(3,3,3-trifluoropropyl) azetidine-3-carboxamide] | A (ke is more than or equal to 1.0) |
